Read-outs that look alike come from different tables or passages of the source.
What was measured:
[1] = test system: bacteria A (any one of Staphylococcus aureus, Escherichia coli MV1184, Streptococcus pyogenes, Streptcoccus mutans, Porphyromonas gingivalis, Treponema …); experiment: Bactericidal action on bacteria A-containing material (Experimental Example 1); type: cell-based; details: chlorine dioxide generated by bringing ozone gas into contact with a radical source; cultured after contact
[2] = Lewis acidity measuring method (1): reaction rate constant of reaction between CoTPP and oxygen in the presence of a Lewis acid; type: physicochemical
From the text: Chem. Soc. […] Specifically, the Lewis acidity can be measured by the following “Lewis acidity measuring method (1)”, which is herein incorporated by reference.
As to acetonitrile (MeCN) that contains cobalt tetraphenylporphyrin, saturated O2, and an object whose Lewis acidity is to be measured (e.g., a cation of a metal or the like, represented by M^n+ in the following chemical reaction formula (1a)) in the following chemical reaction formula (1a), the change of the ultraviolet-visible absorption spectrum is measured at room temperature. On the basis of the obtained reaction rate constant (kcat), the ΔE value (eV), which is an indicator of the Lewis acidity, can be calculated. The higher the kcat, the stronger the Lewis acidity. Furthermore, the Lewis acidity of an organic compound can be estimated from the energy level of the lowest unoccupied molecular orbital (LUMO) calculated by the quantum chemical calculation. The higher the value at the positive side, the stronger the Lewis acidity.
In the following table, the numerical value expressed in the unit “kcat, M^−2s^−1” is a reaction rate constant of a reaction between CoTPP and oxygen in the presence of a Lewis acid. The numerical value expressed in the unit “LUMO, eV” is the energy level of LUMO.

Compound | kcat, reaction rate constant of reaction between CoTPP and oxygen in the presence of a Lewis acid [2] [M^−2 s^−1] | other results
[O][Cl+][O-] [chlorine dioxide] |  | bactericidal effect on bacteria A [1]: exhibits a bactericidal effect
CC(C)(C)CC(C)(C)c1ccc(OCCOCC[N+](C)(C)Cc2ccccc2)cc1.[Cl-] [benzethonium chloride] | 0.24 | 
CCCC[N+](CCCC)(CCCC)CCCC.F[P-](F)(F)(F)(F)F [tetrabutylammonium hexafluorophosphate] | >0.1 | 
benzalkonium chloride |  | kcat, reaction rate constant of reaction between CoTPP and oxygen in the presence of a Lewis acid ([2]; acetonitrile, saturated O2, room temperature): 0.18 M^−2 s^−1

From patent US20240000084A1, “ANTI[…], ANTIBACTERIAL AGENT, ANTIVIRAL AGENT, PATHOGEN DISPOSAL DEVICE, ANTI[…] PRODUCTION METHOD, ANTIBACTERIAL TREATMENT METHOD, VIRUS INACTIVATION METHOD, AND PATHOGEN DISPOSAL METHOD” (ACENET INC., priority 2020, published 2024)
